Data from US20180117005A1, “COMPOSITIONS FOR THE TREATMENT OF CANCER” (THE GENERAL HOSPITAL CORPORATION, priority 2015, published 2018).

Tested on: tumor that expresses high levels of CXCL12
Experiment: Tumor growth in mice with a subcutaneous CXCL12-expressing tumor, AMD3100 followed by cisplatin
Format: in vivo
Method: Mice are injected with tumor cells (subcutaneous injection) from a tumor that expresses high levels of CXCL12 and a tumor allowed to develop. Once the tumor has formed, the mice are injected (subcutaneous in the same flank as the tumor) with AMD3100 or vehicle, once a day for 5 days.
One to three days after the final dose of AMD3100, mice are injected via intraperitoneal injection with a therapeutically effective amount of cisplatin 18 hours prior to assay of tumor growth.

Compound | Delay in tumor growth, co-treatment versus cisplatin alone (AMD3100 subcutaneous once a day for 5 days, then cisplatin intraperitoneal one to three days after the final dose) | Tumor growth (cisplatin intraperitoneal 18 hours prior to assay, growth resumes soon after treatment is discontinued in mice not administered AMD3100)
c1cc(CN2CCCNCCNCCCNCC2)ccc1CN1CCCNCCNCCCNCC1 [AMD3100] | synergistic effect | –
N.N.[Cl][Pt][Cl] [cisplatin] | – | delayed
